In article PMC9030254, “Target Hopping from Protein Kinases to PXR: Identification of Small-Molecule Protein Kinase Inhibitors as Selective Modulators of Pregnane X Receptor from TüKIC Library” (Cells, 2022):

What was measured:
Test in all cases: Kinase profiling
Format in all cases: biochemical
ACVRL1 = molecular target: T1, ACVRL1 (Homo sapiens, UniProt P37023)
T1 construct: purchased ProQinase (Freiburg, Germany)
Method: (§1) The analysis was performed by ProQinase (Freiburg, Germany).

AKT3 = molecular target: T2, AKT3 (Homo sapiens, UniProt Q9Y243)
T2 construct: purchased ProQinase (Freiburg, Germany)
T2 sequence (Q9Y243 whole entry): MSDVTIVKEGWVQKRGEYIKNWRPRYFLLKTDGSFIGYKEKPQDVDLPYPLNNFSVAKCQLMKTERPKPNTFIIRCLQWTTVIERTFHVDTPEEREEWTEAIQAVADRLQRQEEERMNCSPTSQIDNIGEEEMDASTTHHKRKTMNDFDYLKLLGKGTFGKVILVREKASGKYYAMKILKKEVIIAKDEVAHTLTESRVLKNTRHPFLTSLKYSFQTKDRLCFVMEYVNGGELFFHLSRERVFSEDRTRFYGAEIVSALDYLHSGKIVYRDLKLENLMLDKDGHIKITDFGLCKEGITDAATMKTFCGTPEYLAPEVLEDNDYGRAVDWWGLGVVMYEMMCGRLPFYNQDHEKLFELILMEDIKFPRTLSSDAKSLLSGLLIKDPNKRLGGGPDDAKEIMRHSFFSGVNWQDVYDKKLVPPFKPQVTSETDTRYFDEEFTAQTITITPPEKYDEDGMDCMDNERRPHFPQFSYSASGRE
Method: as §1

CDK19/CycC = molecular target: T3, CDK19/CycC (Homo sapiens, UniProt Q9BWU1)
T3 construct: purchased ProQinase (Freiburg, Germany)
Method: as §1

CDK4/CycD3 = molecular target: T4, CDK4/CycD3 (Homo sapiens, UniProt P11802)
T4 construct: purchased ProQinase (Freiburg, Germany)
T4 sequence (P11802 whole entry): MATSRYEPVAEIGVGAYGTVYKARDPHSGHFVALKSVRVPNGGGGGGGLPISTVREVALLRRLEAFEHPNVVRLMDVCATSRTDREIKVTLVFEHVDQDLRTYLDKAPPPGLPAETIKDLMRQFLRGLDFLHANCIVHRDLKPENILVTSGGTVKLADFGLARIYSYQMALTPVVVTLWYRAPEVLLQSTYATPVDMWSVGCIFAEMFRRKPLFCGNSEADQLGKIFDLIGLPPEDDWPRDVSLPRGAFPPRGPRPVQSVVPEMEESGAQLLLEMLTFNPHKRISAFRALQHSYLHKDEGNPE
T4 sequence (P30281 whole entry partner): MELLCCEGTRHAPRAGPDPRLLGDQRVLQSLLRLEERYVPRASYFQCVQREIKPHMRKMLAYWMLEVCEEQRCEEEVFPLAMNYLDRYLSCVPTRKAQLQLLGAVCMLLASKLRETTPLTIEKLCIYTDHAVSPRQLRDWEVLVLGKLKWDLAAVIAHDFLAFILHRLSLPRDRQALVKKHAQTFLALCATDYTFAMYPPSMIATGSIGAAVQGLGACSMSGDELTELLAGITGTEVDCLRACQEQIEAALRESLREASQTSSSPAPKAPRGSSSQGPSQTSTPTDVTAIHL
Method: as §1

CLK1 = molecular target: T5, CLK1 (Homo sapiens, UniProt P49759)
T5 construct: purchased ProQinase (Freiburg, Germany)
T5 sequence (P49759 whole entry): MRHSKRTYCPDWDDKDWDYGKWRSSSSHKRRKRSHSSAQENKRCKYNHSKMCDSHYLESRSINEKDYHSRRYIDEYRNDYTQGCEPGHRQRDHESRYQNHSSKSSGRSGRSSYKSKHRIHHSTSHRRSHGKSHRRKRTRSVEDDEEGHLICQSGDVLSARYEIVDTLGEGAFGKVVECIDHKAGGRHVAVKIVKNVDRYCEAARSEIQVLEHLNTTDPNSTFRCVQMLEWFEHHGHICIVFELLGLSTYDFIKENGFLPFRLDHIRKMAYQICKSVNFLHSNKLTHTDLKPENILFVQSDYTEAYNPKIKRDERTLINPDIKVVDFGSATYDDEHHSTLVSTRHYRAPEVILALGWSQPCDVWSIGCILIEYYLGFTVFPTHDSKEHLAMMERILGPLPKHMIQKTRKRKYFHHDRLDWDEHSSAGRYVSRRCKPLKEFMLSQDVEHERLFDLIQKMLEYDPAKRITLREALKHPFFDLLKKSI
Method: as §1

CLK3 = molecular target: T6, CLK3 (Homo sapiens, UniProt P49761)
T6 construct: purchased ProQinase (Freiburg, Germany)
Method: as §1

GSK3beta = molecular target: T7, GSK3beta (Homo sapiens, UniProt P49841)
T7 construct: purchased ProQinase (Freiburg, Germany)
T7 sequence (P49841 whole entry): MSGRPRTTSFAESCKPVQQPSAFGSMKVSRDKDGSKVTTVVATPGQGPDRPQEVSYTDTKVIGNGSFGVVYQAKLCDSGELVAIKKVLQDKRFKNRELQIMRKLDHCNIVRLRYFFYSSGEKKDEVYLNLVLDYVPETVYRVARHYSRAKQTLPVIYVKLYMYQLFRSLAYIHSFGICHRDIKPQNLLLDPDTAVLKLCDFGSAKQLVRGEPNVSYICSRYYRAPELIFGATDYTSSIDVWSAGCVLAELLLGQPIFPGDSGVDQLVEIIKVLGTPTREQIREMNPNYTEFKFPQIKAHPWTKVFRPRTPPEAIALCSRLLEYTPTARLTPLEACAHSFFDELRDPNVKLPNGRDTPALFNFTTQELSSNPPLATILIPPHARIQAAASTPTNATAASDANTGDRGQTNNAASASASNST
Method: as §1

HIPK3 = molecular target: T8, HIPK3 (Homo sapiens, UniProt Q9H422)
T8 construct: purchased ProQinase (Freiburg, Germany)
Method: as §1

PAK4 = molecular target: T9, PAK4 (Homo sapiens, UniProt O96013)
T9 construct: purchased ProQinase (Freiburg, Germany)
Method: as §1

PKCtheta = molecular target: T10, PKCtheta (Homo sapiens, UniProt Q04759)
T10 construct: purchased ProQinase (Freiburg, Germany)
T10 sequence (Q04759 whole entry): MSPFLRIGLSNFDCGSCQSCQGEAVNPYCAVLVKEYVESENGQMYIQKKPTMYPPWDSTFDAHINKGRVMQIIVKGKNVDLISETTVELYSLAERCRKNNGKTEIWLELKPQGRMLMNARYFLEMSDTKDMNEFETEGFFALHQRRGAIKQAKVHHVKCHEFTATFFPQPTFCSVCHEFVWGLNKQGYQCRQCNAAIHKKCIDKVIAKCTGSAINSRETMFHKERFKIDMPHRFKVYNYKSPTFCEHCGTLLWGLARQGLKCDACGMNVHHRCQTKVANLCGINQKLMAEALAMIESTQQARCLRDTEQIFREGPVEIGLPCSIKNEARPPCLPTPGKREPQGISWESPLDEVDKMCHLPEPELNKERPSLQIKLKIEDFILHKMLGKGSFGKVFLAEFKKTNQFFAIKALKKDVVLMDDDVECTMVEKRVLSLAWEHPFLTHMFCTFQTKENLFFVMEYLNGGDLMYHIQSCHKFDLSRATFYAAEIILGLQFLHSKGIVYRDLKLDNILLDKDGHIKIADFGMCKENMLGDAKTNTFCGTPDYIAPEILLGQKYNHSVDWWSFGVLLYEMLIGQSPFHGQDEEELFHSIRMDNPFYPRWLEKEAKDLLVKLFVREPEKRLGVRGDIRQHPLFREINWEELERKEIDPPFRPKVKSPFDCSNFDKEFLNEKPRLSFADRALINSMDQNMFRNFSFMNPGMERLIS
Method: as §1

RPS6KA3 = molecular target: T11, RPS6KA3 (Homo sapiens, UniProt P51812)
T11 construct: purchased ProQinase (Freiburg, Germany)
T11 sequence (P51812 whole entry): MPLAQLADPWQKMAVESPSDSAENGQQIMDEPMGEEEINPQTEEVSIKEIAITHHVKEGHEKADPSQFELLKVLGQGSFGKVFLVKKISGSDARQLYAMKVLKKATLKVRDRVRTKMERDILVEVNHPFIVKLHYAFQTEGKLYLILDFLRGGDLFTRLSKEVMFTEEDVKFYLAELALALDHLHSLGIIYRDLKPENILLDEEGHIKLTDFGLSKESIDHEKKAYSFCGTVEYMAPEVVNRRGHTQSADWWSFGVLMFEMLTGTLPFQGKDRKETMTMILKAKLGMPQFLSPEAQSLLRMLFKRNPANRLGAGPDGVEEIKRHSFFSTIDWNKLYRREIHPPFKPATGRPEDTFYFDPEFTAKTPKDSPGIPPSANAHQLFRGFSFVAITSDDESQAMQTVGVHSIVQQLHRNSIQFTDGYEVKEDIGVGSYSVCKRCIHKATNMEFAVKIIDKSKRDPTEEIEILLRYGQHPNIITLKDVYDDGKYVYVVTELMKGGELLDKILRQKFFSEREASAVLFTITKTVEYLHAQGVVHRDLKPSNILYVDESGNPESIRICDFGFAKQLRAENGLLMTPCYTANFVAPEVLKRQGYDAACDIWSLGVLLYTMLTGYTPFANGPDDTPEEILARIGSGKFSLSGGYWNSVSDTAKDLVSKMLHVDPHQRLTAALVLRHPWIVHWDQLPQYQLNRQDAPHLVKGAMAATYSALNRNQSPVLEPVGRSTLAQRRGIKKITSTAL
Method: as §1

SGK1 = molecular target: T12, SGK1 (Homo sapiens, UniProt O00141)
T12 construct: purchased ProQinase (Freiburg, Germany)
T12 sequence (O00141 1-431): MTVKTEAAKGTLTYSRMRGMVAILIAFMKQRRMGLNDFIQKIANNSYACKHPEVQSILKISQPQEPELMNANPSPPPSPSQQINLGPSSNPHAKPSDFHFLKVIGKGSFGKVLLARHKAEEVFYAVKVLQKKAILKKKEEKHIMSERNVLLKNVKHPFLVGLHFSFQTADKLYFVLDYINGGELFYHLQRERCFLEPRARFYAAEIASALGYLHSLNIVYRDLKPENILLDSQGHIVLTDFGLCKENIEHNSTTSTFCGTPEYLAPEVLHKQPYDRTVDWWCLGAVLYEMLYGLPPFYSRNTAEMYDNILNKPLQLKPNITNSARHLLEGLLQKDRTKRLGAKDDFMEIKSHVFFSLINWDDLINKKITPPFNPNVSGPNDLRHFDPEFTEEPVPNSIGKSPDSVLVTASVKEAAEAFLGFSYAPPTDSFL
Method: as §1

SRPK2 = molecular target: T13, SRPK2 (Homo sapiens, UniProt P78362)
T13 construct: purchased ProQinase (Freiburg, Germany)
T13 sequence (P78362 whole entry): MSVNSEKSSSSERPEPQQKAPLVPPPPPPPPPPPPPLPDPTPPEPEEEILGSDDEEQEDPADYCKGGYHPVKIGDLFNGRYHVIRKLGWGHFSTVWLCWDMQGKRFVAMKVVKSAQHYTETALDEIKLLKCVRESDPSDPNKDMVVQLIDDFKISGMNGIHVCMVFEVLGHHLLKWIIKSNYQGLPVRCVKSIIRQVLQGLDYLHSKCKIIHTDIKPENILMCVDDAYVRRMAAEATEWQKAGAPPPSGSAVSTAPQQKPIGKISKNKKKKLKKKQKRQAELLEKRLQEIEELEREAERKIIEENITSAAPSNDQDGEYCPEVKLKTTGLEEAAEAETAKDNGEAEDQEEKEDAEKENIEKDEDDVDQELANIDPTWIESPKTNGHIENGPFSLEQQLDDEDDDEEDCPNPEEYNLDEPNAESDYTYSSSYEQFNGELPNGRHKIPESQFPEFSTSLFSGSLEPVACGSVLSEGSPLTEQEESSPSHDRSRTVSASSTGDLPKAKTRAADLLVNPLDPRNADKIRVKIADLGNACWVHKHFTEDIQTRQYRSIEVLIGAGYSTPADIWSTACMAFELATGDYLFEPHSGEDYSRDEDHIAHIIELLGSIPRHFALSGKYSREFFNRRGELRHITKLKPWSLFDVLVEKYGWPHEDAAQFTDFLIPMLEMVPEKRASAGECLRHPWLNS
Method: as §1

TTK = molecular target: T14, TTK (Homo sapiens, UniProt P33981)
T14 construct: purchased ProQinase (Freiburg, Germany)
T14 sequence (P33981 1-857): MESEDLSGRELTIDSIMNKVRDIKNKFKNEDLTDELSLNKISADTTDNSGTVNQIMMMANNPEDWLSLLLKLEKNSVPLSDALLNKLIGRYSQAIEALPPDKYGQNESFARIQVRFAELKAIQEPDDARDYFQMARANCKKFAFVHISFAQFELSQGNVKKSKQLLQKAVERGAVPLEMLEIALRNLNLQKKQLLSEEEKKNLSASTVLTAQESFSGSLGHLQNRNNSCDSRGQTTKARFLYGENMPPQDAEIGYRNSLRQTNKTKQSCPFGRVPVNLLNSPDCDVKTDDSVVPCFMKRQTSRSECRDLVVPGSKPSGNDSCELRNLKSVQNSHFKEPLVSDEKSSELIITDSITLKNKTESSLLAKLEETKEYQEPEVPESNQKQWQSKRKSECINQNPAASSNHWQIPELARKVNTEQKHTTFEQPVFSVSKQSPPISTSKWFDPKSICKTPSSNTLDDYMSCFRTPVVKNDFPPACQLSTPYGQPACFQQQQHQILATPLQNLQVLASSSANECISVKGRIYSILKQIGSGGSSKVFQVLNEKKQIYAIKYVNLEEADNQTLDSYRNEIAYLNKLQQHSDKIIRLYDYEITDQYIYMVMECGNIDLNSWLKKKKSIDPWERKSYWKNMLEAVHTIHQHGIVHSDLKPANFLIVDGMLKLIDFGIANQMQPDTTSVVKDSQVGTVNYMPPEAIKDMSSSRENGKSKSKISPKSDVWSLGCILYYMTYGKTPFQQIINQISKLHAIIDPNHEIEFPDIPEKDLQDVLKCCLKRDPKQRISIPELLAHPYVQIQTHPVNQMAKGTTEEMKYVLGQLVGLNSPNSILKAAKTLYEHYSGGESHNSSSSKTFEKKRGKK
Method: as §1

VRK1 = molecular target: T15, VRK1 (Homo sapiens, UniProt Q99986)
T15 construct: purchased ProQinase (Freiburg, Germany)
T15 sequence (Q99986 1-396): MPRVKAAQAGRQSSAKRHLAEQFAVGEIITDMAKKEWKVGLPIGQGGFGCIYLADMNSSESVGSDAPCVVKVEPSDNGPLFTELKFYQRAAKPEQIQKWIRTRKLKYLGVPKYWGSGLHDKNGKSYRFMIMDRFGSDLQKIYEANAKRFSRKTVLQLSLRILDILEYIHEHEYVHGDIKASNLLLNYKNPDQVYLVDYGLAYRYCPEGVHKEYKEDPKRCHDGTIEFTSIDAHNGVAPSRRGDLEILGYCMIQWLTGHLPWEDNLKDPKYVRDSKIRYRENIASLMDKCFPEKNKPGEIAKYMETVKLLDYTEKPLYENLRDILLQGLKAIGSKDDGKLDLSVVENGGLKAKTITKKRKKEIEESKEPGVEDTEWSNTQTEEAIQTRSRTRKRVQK
Method: as §1

VRK2 = molecular target: T16, VRK2 (Homo sapiens, UniProt Q86Y07)
T16 construct: purchased ProQinase (Freiburg, Germany)
Method: as §1

ZAK = molecular target: T17, ZAK (Homo sapiens, UniProt Q9NYL2)
T17 construct: purchased ProQinase (Freiburg, Germany)
T17 sequence (Q9NYL2 whole entry): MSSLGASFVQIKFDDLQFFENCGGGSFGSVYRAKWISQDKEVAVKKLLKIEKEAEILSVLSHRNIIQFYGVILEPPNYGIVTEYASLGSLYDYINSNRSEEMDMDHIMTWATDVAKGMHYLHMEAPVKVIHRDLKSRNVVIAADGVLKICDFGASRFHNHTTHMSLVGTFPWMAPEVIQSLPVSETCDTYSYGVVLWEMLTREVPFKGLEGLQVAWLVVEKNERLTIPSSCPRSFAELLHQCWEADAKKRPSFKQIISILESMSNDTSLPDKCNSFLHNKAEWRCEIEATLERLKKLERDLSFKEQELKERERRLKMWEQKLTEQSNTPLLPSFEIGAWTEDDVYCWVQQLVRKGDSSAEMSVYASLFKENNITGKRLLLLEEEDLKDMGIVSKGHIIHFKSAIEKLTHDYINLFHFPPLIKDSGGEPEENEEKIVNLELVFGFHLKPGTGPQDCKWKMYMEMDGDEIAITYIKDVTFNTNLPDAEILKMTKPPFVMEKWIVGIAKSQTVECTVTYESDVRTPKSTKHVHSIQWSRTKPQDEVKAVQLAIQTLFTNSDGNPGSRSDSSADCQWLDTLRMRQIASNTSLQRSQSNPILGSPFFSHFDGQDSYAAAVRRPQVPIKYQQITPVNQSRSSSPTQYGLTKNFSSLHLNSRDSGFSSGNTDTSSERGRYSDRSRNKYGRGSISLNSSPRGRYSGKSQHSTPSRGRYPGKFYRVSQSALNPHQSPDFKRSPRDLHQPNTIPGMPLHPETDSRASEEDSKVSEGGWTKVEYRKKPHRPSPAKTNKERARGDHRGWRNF
Method: as §1

Structure (SMILES): O=C(Cc1ccccc1)Nc1ccc(F)c(Nc2ccc3c(c2)CCCCC3=O)c1 [Compound 100]
- Residual activity (ACVRL1; 1.0E-05 M): 100 % of control
- Residual activity (ACVRL1; 1.0E-06 M): 106 % of control
- Residual activity (AKT3; 1.0E-05 M): 100 % of control
- Residual activity (AKT3; 1.0E-06 M): 114 % of control
- Residual activity (CDK19/CycC; 1.0E-05 M): 77 % of control
- Residual activity (CDK19/CycC; 1.0E-06 M): 81 % of control
- Residual activity (CDK4/CycD3; 1.0E-05 M): 89 % of control
- Residual activity (CDK4/CycD3; 1.0E-06 M): 93 % of control
- Residual activity (CLK1; 1.0E-05 M): 79 % of control
- Residual activity (CLK1; 1.0E-06 M): 99 % of control
- Residual activity (CLK3; 1.0E-05 M): 114 % of control
- Residual activity (CLK3; 1.0E-06 M): 130 % of control
- Residual activity (GSK3beta; 1.0E-05 M): 88 % of control
- Residual activity (GSK3beta; 1.0E-06 M): 88 % of control
- Residual activity (HIPK3; 1.0E-05 M): 87 % of control
- Residual activity (HIPK3; 1.0E-06 M): 88 % of control
- Residual activity (PAK4; 1.0E-05 M): 92 % of control
- Residual activity (PAK4; 1.0E-06 M): 97 % of control
- Residual activity (PKCtheta; 1.0E-05 M): 82 % of control
- Residual activity (PKCtheta; 1.0E-06 M): 104 % of control
- Residual activity (RPS6KA3; 1.0E-05 M): 80 % of control
- Residual activity (RPS6KA3; 1.0E-06 M): 97 % of control
- Residual activity (SGK1; 1.0E-05 M): 85 % of control
- Residual activity (SGK1; 1.0E-06 M): 108 % of control
- Residual activity (SRPK2; 1.0E-05 M): 94 % of control
- Residual activity (SRPK2; 1.0E-06 M): 100 % of control
- Residual activity (TTK; 1.0E-05 M): 95 % of control
- Residual activity (TTK; 1.0E-06 M): 99 % of control
- Residual activity (VRK1; 1.0E-05 M): 103 % of control
- Residual activity (VRK1; 1.0E-06 M): 102 % of control
- Residual activity (VRK2; 1.0E-05 M): 114 % of control
- Residual activity (VRK2; 1.0E-06 M): 113 % of control
- Residual activity (ZAK; 1.0E-05 M): 102 % of control
- Residual activity (ZAK; 1.0E-06 M): 109 % of control

Structure (SMILES): O=C(Nc1ccc(F)c(Nc2ccc3c(c2)CCCCC3=O)c1)c1cccc(F)c1 [Compound 109]
- Residual activity (ACVRL1; 1.0E-05 M): 109 % of control
- Residual activity (ACVRL1; 1.0E-06 M): 94 % of control
- Residual activity (AKT3; 1.0E-05 M): 102 % of control
- Residual activity (AKT3; 1.0E-06 M): 95 % of control
- Residual activity (CDK19/CycC; 1.0E-05 M): 74 % of control
- Residual activity (CDK19/CycC; 1.0E-06 M): 83 % of control
- Residual activity (CDK4/CycD3; 1.0E-05 M): 89 % of control
- Residual activity (CDK4/CycD3; 1.0E-06 M): 94 % of control
- Residual activity (CLK1; 1.0E-05 M): 96 % of control
- Residual activity (CLK1; 1.0E-06 M): 105 % of control
- Residual activity (CLK3; 1.0E-05 M): 105 % of control
- Residual activity (CLK3; 1.0E-06 M): 110 % of control
- Residual activity (GSK3beta; 1.0E-05 M): 90 % of control
- Residual activity (GSK3beta; 1.0E-06 M): 82 % of control
- Residual activity (HIPK3; 1.0E-05 M): 90 % of control
- Residual activity (HIPK3; 1.0E-06 M): 89 % of control
- Residual activity (PAK4; 1.0E-05 M): 82 % of control
- Residual activity (PAK4; 1.0E-06 M): 98 % of control
- Residual activity (PKCtheta; 1.0E-05 M): 84 % of control
- Residual activity (PKCtheta; 1.0E-06 M): 106 % of control
- Residual activity (RPS6KA3; 1.0E-05 M): 84 % of control
- Residual activity (RPS6KA3; 1.0E-06 M): 90 % of control
- Residual activity (SGK1; 1.0E-05 M): 97 % of control
- Residual activity (SGK1; 1.0E-06 M): 99 % of control
- Residual activity (SRPK2; 1.0E-05 M): 102 % of control
- Residual activity (SRPK2; 1.0E-06 M): 111 % of control
- Residual activity (TTK; 1.0E-05 M): 89 % of control
- Residual activity (TTK; 1.0E-06 M): 91 % of control
- Residual activity (VRK1; 1.0E-05 M): 130 % of control
- Residual activity (VRK1; 1.0E-06 M): 100 % of control
- Residual activity (VRK2; 1.0E-05 M): 108 % of control
- Residual activity (VRK2; 1.0E-06 M): 107 % of control
- Residual activity (ZAK; 1.0E-05 M): 106 % of control
- Residual activity (ZAK; 1.0E-06 M): 106 % of control
